Results reported in ChEMBL document CHEMBL1641538, “Synthesis of a novel human PPARδ selective agonist and its stimulatory effect on oligodendrocyte differentiation” (Bioorg Med Chem Lett, 2011).
Activity calls are given as the source filed them. The calls are words filed in the database; no cut-off is given here.

Assays:
[1] = biological target: T1, Peroxisome proliferator-activated receptor gamma (Homo sapiens, UniProt P37231); format: cell-based, CV-1
T1 sequence (P37231 whole entry): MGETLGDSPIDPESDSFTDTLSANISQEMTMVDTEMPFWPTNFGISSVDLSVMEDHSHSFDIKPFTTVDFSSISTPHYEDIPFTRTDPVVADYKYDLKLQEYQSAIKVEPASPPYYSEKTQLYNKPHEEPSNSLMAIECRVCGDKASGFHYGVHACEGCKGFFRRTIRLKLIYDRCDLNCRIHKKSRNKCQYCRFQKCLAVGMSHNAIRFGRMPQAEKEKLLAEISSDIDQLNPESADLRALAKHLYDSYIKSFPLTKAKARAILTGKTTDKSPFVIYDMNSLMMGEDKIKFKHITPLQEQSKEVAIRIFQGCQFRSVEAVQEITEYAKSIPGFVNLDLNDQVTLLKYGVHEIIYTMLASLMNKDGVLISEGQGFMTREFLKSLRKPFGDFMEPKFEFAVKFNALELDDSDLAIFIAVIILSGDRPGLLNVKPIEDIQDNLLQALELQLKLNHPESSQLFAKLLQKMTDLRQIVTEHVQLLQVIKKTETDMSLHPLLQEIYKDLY

[2] = biological target: T2, Peroxisome proliferator-activated receptor delta (Homo sapiens, UniProt Q03181); assay: Transactivation of Gal4-fused human PPARdelta DNA binding domain expressed in african green monkey CV1 cells by luciferase reporter gene assay; format: cell-based, CV-1
T2 sequence (Q03181 whole entry): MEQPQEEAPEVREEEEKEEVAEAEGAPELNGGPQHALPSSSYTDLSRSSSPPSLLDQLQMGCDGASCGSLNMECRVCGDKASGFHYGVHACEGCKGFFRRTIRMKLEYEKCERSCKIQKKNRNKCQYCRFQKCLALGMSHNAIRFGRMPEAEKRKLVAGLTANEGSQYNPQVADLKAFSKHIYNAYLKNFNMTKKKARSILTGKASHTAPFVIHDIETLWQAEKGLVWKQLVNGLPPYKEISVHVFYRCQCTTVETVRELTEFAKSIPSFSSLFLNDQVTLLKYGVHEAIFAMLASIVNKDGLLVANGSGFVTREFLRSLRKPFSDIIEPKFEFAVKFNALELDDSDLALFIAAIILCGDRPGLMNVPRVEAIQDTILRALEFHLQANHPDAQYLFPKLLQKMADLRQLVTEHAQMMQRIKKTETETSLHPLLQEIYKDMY

[3] = biological target: PPAR delta/gamma (Homo sapiens) (UniProt P37231+Q03181); assay: Selectivity ratio of EC50 for full length human PPARgamma to EC50 for full length human PPARdelta
[4] = biological target: T3, Peroxisome proliferator-activated receptor alpha (Homo sapiens, UniProt Q07869); assay: Transactivation of full length human PPARalpha expressed in african green monkey CV1 cells by luciferase reporter gene assay; format: cell-based, CV-1
T3 sequence (Q07869 whole entry): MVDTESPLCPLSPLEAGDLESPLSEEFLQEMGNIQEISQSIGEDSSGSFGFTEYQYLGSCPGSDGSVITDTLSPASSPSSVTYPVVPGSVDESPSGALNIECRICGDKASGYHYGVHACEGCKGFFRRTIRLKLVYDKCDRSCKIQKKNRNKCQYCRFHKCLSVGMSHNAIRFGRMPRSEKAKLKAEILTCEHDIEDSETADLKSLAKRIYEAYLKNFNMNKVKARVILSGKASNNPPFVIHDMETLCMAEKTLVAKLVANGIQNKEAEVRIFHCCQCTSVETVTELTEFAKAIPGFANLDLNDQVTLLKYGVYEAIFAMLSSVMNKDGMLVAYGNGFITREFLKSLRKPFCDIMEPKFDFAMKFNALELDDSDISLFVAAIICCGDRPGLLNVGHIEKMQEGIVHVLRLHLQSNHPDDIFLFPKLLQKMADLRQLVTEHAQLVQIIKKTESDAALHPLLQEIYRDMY

[5] = biological target: T2, Peroxisome proliferator-activated receptor delta; assay: Transactivation of full length human PPARdelta expressed in african green monkey CV1 cells by luciferase reporter gene assay; format: cell-based, CV-1
[6] = biological target: T3, Peroxisome proliferator-activated receptor alpha; assay: Transactivation of Gal4-fused human PPARalpha DNA binding domain expressed in african green monkey CV1 cells by luciferase reporter gene assay; format: cell-based, CV-1
[7] = species on record: Homo sapiens; assay: Selectivity ratio of EC50 for full length human PPARalpha to EC50 for full length human PPARdelta
[8] = species on record: Rattus norvegicus; assay: Induction of Wistar rat oligodendrocyte differentiation at 0.1 uM after 3 days by O1 antibody staining; format: functional
[9] = biological target: T1, Peroxisome proliferator-activated receptor gamma; assay: Transactivation of full length human PPARgamma expressed in african green monkey CV1 cells by luciferase reporter gene assay; format: cell-based, CV-1

EC50 [2]	SMILES	EC50 [1]	Ratio EC50 [3]	EC50 [4]	EC50 [5]	EC50 [6]	Ratio EC50 [7]	Activity [8]	EC50 [9]
2.6 µM	Cc1nc(-c2ccc(C(F)(F)F)cc2)sc1C(=O)NCc1ccc(OC(C)(C)C(=O)O)cc1 [GW590735]	> 10 µM							
	Cc1cc2c(CCc3nc(-c4ccc(Cl)cc4Cl)oc3C(C)C)noc2cc1OCC(=O)O	> 10 µM	2000	> 10 µM	0.0045 µM	> 10 µM	2000	Active	> 10 µM
